What was measured:
Assay type in all cases: cell-based, human
autophagy = assay: Autophagy (LC3 lipidation, RFP-GFP-LC3 autophagic flux); conditions: LC3 Western blot and GFP-RFP-LC3 autophagic flux, HeLa cells
Description: Cells were washed twice with ice cold PBS and scraped into lysis buffer (50 mM Tris-HCl, pH 7.4, 130 mM NaCl, 0.5% NP-40) supplemented with freshly added protease inhibitor cocktail, 5 mM ATP, 10 mM iodoacetamide, and 5 mM N-ethyl maleimide. Protein concentration was measured by the BCA assay according to the manufacturer's instructions (Pierce, Rockford, IL). 30 μg of cellular protein were resolved via SDS-PAGE, transferred to a nitrocellulose membrane and immunoblotted with the appropriate antibody. Cells stably expressing the fusion of RFP-GFP-LC3 were treated as described and were visualized live, using high-throughput fluorescence microscopy (IXM-C, Molecular Devices) under controlled environment (21% O2, 5% CO2, 37° C.). Analysis of autophagic flux was made based on the differential signal in the green and red channels, as previously described [[…], et al. (2009). Cell 136, 521-534] Due to the instability of GFP in acidic pH, only RFP retains its fluorescence in the acidic lysosome, while both are visible in the autophagosome. The RFP: GFP puncta ratio is indicating the extent of autophagy activation, or flux. The figure presents mean+/-SD and Student's T-Test p-values of three replicates.

proteasome = assay: Live imaging of proteasome activity probe Me4BodipyFL-Ahx3Leu3VS; conditions: addition to the starvation medium, HeLa cells
Description: Live cell proteasome activity was followed as previously described [C. R. Berkers et al., Mol Pharm 4, 739-748 (2007)]. In brief, Me4BodipyFL-Ahx3Leu3VS was added to the medium to a final concentration of 1 μM. Following incubation for 15 min, the cells were visualized by a Zeiss LSM 700 confocal microscope. In vitro proteasome activity assay was carried out as previously described [O. Braten et al., Proc. Natl. Acad. Sci. 113, E4639-47 (2016)]. In brief, cellular fractions were incubated at 37° C. for 30 min with 5 μM Suc-LLVY-AMC (Succinyl-Leu-Leu-Val-Tyr-amido-4-methylcoumarin) in a reaction buffer (40 mM Tris-HCl pH 7.2, 2 mM DTT, 5 mM MgCl2, 10 mM creatine phosphate, 0.1 mg/ml creatine phosphate kinase, 5 mM ATP). Reactions were stopped by adding 1% SDS, and fluorescence was measured at 360/460 nm (ex/em).

HeLa cells = assay: Proteomic mass-spectrometric analysis of cellular protein levels; conditions: St.+LMB or St.+YWF vs Cont.
Description: 2-3 mg of cell extract protein in 8 M Urea and 100 mM ammonium bicarbonate, were incubated with DTT (2.8 mM; 30 min at 60° C.), modified with iodoacetamide (8.8 mM; 30 min at room temperature in the dark), and digested (overnight at 37° C.) with modified trypsin (Promega; 1:50 enzyme-to-substrate ratio) in 2 M Urea and 25 mM ammonium bicarbonate. Additional second trypsinization was carried out for 4 h. The tryptic peptides were desalted using Sep-Pak C18 (Waters) and dried. 10 μg of protein were used for proteome analysis as described under Mass spectrometry.
Tryptic peptides were analyzed by LC-MS/MS using a Q Exactive plus mass spectrometer (Thermo Fisher Scientific) fitted with a capillary HPLC (easy nLC 1000, Thermo). […]
The mass spectrometry raw data were analyzed by the MaxQuant software (version 1.4.1.2, http://www.maxquant.org) for peak picking and quantification. […] The MaxQuant software was used for label-free semi-quantitative analysis [based on extracted ion currents (XICs) of peptides], enabling quantification from each LC/MS run for each peptide identified in any of the experiments. In samples that were SILAC-labeled, quantification was also carried out using the MaxQuant software. […]

CCC(=C/[C@H](C)C/C=C/C(C)=C/[C@@H](C)C(=O)[C@@H](C)[C@H](O)[C@@H](C)C/C(C)=C/C(=O)O)/C=C/[C@@H]1OC(=O)C=C[C@@H]1C [Leptomycin B]
autophagy under starvation (autophagy): not inhibited
localization of proteasomal activity (nucleus vs cytosol) (proteasome): preventing the shift in its dominance from the nucleus to the cytosol
accelerated degradation of cellular proteins upon starvation (HeLa cells): accelerated degradation was prevented
